Results from patent US9073855B2, “BCL-2 selective apoptosis-inducing agents for the treatment of cancer and immune diseases” (AbbVie Inc., priority 2008, dated 2015).

Tests used:
GST-Bcl-2 = GST-Bcl-2 (Homo sapiens, UniProt P10415); test: TR-FRET binding assay, GST-Bcl-2 with F-Bak peptide probe; conditions: for Ki: TR-FRET Binding Affinity, GST-Bcl-2, F-Bak peptide probe; for Binding selectivity ratio (Bcl-XL Ki/Bcl-2 Ki): ratio of TR-FRET Ki values, Bcl-XL over Bcl-2
Outline: (§1)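 Compounds were serially diluted in DMSO from a 50 μM starting solution (2× the starting concentration; 10% DMSO). Plates were incubated for 3 h at room temperature, and TR-FRET was read with 340/35 nm excitation and emission at 520/525 nm (F-Bak) and 495/510 nm (Tb antibody). Ki values were calculated using Wang's competitive-binding equation.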

GST-Bcl-XL = GST-Bcl-XL (Homo sapiens, UniProt Q07817); test: TR-FRET binding assay, GST-Bcl-XL with F-Bak peptide probe; conditions: TR-FRET Binding Affinity, GST-Bcl-XL, F-Bak peptide probe
Sequence of GST-Bcl-XL (Q07817 whole entry): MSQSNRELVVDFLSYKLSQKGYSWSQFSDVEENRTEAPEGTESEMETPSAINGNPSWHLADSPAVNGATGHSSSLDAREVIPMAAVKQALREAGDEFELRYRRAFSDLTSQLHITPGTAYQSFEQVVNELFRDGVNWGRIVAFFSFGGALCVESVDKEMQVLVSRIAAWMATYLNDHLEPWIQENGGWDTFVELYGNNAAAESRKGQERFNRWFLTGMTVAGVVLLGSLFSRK
Outline: as §1

Canine platelets = test: Platelet cell viability assay (platelet-rich plasma, Cell Titer Glo); type: cell-based; conditions: Canis lupus familiaris, 5 h, isolated canine platelets ex vivo, five hours at 37° C.
Protocol: After the incubation, platelets were equilibrated to room temperature for 20 minutes and then an equal volume of Cell Titer Glo reagent (Promega Corporation) was added. Samples were mixed for two minutes and then allowed to equilibrate for an additional 10 minutes at room temperature. The luminescence generated from the samples was quantitated using an LJL Analyst plate reader.
The effect of compounds on platelet survival can be directly evaluated ex vivo by examining the viability of isolated canine platelets in the presence of various concentrations of compound.

FL5.12/Bcl-2 cells = test: FL5.12/Bcl-2 cell viability assay under IL-3 withdrawal (CellTitre Glo); type: cell-based, murine; conditions: Mus musculus, IL-3 withdrawn 48 hrs, then 24 hrs with compound
Outline: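 Viability measured with CellTiter-Glo after 24 h compound treatment at various concentrations, following 48 h IL-3 withdrawal (no WEHI-3B medium). Cells: prolymphocytic mouse FL5.12 line stably transfected to overexpress Bcl-2, cultured at 37 °C, 5% CO2.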

Sequence of GST-Bcl-2 (P10415 whole entry): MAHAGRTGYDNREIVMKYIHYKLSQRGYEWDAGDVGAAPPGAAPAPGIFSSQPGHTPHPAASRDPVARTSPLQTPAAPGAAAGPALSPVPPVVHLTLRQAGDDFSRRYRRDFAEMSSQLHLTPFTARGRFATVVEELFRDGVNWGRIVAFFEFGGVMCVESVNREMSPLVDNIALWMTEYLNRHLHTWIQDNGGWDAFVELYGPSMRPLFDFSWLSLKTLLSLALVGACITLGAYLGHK

CC1(C)CCC(CN2CCN(c3ccc(C(=O)NS(=O)(=O)c4ccc(NCCCN5CCOCC5)c([N+](=O)[O-])c4)c(Oc4ccccc4)c3)CC2)=C(c2ccc(Cl)cc2)C1 [Example 18, 4-(4-{[2-(4-chlorophenyl)-4,4-dimethylcyclohex-1-en-1-yl]methyl}piperazin-1-yl)-N-({4-[(3-morpholin-4-ylpropyl)amino]-3-nitrophenyl}sulfonyl)-2-phenoxybenzamide]
Ki (GST-Bcl-2): 0.238 nM | Ki (GST-Bcl-XL): 8.13 nM | EC50 (Canine platelets): 29700 nM | EC50 (FL5.12/Bcl-2 cells): 123 nM

CN1CCC(Nc2ccc(S(=O)(=O)NC(=O)c3ccc(N4CCN(CC5=C(c6ccc(Cl)cc6)CC(C)(C)CC5)CC4)cc3Oc3ccc4[nH]ncc4c3)cc2[N+](=O)[O-])CC1 [Example 21, 4-(4-{[2-(4-chlorophenyl)-4,4-dimethylcyclohex-1-en-1-yl]methyl}piperazin-1-yl)-2-(1H-indazol-5-yloxy)-N-({4-[(1-methylpiperidin-4-yl)amino]-3-nitrophenyl}sulfonyl)benzamide]
Ki (GST-Bcl-2): 5.43 nM | Ki (GST-Bcl-XL): 190 nM | EC50 (Canine platelets): > 50000 nM | EC50 (FL5.12/Bcl-2 cells): 1010 nM

CN1CCC(Nc2ccc(S(=O)(=O)NC(=O)c3ccc(N4CCN(CC5=C(c6ccc(Cl)cc6)CC(C)(C)CC5)CC4)cc3Oc3ccc4[nH]ccc4c3)cc2S(=O)(=O)C(F)(F)F)CC1 [Example 76, 4-(4-{[2-(4-chlorophenyl)-4,4-dimethylcyclohex-1-en-1-yl]methyl}piperazin-1-yl)-2-(1H-indol-5-yloxy)-N-({4-[(1-methylpiperidin-4-yl)amino]-3-[(trifluoromethyl)sulfonyl]phenyl}sulfonyl)benzamide]
Ki (GST-Bcl-XL): 3.29 nM | EC50 (Canine platelets): 8660 nM | EC50 (FL5.12/Bcl-2 cells): 39 nM

CN1CCC(Nc2ccc(S(=O)(=O)NC(=O)c3ccc(N4CCN(CC5=C(c6ccc(Cl)cc6)CC(C)(C)CC5)CC4)cc3Oc3ccc4[nH]ccc4c3)cc2[N+](=O)[O-])CC1 [Example 98, 4-(4-{[2-(4-chlorophenyl)-4,4-dimethylcyclohex-1-en-1-yl]methyl}piperazin-1-yl)-2-(1H-indol-5-yloxy)-N-({4-[(1-methylpiperidin-4-yl)amino]-3-nitrophenyl}sulfonyl)benzamide]
Ki (GST-Bcl-XL): > 660 nM | EC50 (Canine platelets): 17900 nM | EC50 (FL5.12/Bcl-2 cells): 4 nM

CN(C)CCCOc1ccc(S(=O)(=O)NC(=O)c2ccc(N3CCN(CC4=C(c5ccc(Cl)cc5)CC(C)(C)CC4)CC3)cc2Oc2cccc3[nH]ccc23)cc1[N+](=O)[O-] [Example 106, 4-(4-{[2-(4-chlorophenyl)-4,4-dimethylcyclohex-1-en-1-yl]methyl}piperazin-1-yl)-N-({4-[3-(dimethylamino)propoxy]-3-nitrophenyl}sulfonyl)-2-(1H-indol-4-yloxy)benzamide]
EC50 (Canine platelets): 15200 nM | EC50 (FL5.12/Bcl-2 cells): 9 nM

CN(C)CCOc1cccc(-c2ccc(Cl)cc2)c1CN1CCN(c2ccc(C(=O)NS(=O)(=O)c3ccc(NCC4CCOCC4)c([N+](=O)[O-])c3)c(Oc3ccc4[nH]ccc4c3)c2)CC1 [Example 129, 4-[4-({4′-chloro-3-[2-(dimethylamino)ethoxy]-1,1′-biphenyl-2-yl}methyl)piperazin-1-yl]-2-(1H-indol-5-yloxy)-N-({3-nitro-4-[(tetrahydro-2H-pyran-4-ylmethyl)amino]phenyl}sulfonyl)benzamide]
EC50 (Canine platelets): > 50000 nM | EC50 (FL5.12/Bcl-2 cells): 21 nM

CN1CCC(Nc2ccc(S(=O)(=O)NC(=O)c3ccc(N4CCN(CC5=C(c6ccc(Cl)cc6)CCC5)CC4)cc3Oc3cccc4[nH]ccc34)cc2[N+](=O)[O-])CC1 [Example 148, 4-(4-{[2-(4-chlorophenyl)cyclopent-1-en-1-yl]methyl}piperazin-1-yl)-2-(1H-indol-4-yloxy)-N-({4-[(1-methylpiperidin-4-yl)amino]-3-nitrophenyl}sulfonyl)benzamide]
Ki (GST-Bcl-2): 2.89 nM | Ki (GST-Bcl-XL): > 660 nM | EC50 (Canine platelets): 19800 nM

CC1(C)CCC(CN2CCN(c3ccc(C(=O)NS(=O)(=O)c4cnc(OCC5(F)CCOCC5)c(Cl)c4)c(Oc4cccc5[nH]ncc45)c3)CC2)=C(c2ccc(Cl)cc2)C1 [Example 404, N-({5-chloro-6-[(4-fluorotetrahydro-2H-pyran-4-yl)methoxy]pyridin-3-yl}sulfonyl)-4-(4-{[2-(4-chlorophenyl)-4,4-dimethylcyclohex-1-en-1-yl]methyl}piperazin-1-yl)-2-(1H-indazol-4-yloxy)benzamide]
Ki (GST-Bcl-2): 0.012 nM | Binding selectivity ratio (Bcl-XL Ki/Bcl-2 Ki) (GST-Bcl-2): 2423.5 | Ki (GST-Bcl-XL): 30.3 nM | EC50 (FL5.12/Bcl-2 cells): 2.34 nM

CC1(C)CCC(CN2CCN(c3ccc(C(=O)NS(=O)(=O)c4cnc(OCC5(F)CCOCC5)c(Cl)c4)c(Oc4cccc5[nH]ccc45)c3)CC2)=C(c2ccc(Cl)cc2)C1 [Example 405, N-({5-chloro-6-[(4-fluorotetrahydro-2H-pyran-4-yl)methoxy]pyridin-3-yl}sulfonyl)-4-(4-{[2-(4-chlorophenyl)-4,4-dimethylcyclohex-1-en-1-yl]methyl}piperazin-1-yl)-2-(1H-indol-4-yloxy)benzamide]
Ki (GST-Bcl-2): 0.04 nM | Binding selectivity ratio (Bcl-XL Ki/Bcl-2 Ki) (GST-Bcl-2): 1394.8 | Ki (GST-Bcl-XL): 55.3 nM | EC50 (FL5.12/Bcl-2 cells): 11.6 nM

CC1(C)CCC(CN2CCN(c3ccc(C(=O)NS(=O)(=O)c4cnc(OCC5(F)CCOCC5)c(C#N)c4)c(Oc4cccc5[nH]ncc45)c3)CC2)=C(c2ccc(Cl)cc2)C1 [Example 406, 4-(4-{[2-(4-chlorophenyl)-4,4-dimethylcyclohex-1-en-1-yl]methyl}piperazin-1-yl)-N-({5-cyano-6-[(4-fluorotetrahydro-2H-pyran-4-yl)methoxy]pyridin-3-yl}sulfonyl)-2-(1H-indazol-4-yloxy)benzamide]
Ki (GST-Bcl-2): 0.035 nM | Ki (GST-Bcl-XL): 44.6 nM | EC50 (FL5.12/Bcl-2 cells): 20.5 nM

CC1(C)CCC(CN2CCN(c3ccc(C(=O)NS(=O)(=O)c4ccc(N[C@@H]5CCN(CC(F)F)C5)c([N+](=O)[O-])c4)c(Oc4cccc5[nH]cnc45)c3)CC2)=C(c2ccc(Cl)cc2)C1 [Example 407, 2-(1H-benzimidazol-4-yloxy)-4-(4-{[2-(4-chlorophenyl)-4,4-dimethylcyclohex-1-en-1-yl]methyl}piperazin-1-yl)-N-[(4-{[(3R)-1-(2,2-difluoroethyl)pyrrolidin-3-yl]amino}-3-nitrophenyl)sulfonyl]benzamide]
Ki (GST-Bcl-2): 0.015 nM | Binding selectivity ratio (Bcl-XL Ki/Bcl-2 Ki) (GST-Bcl-2): 4930.6 | Ki (GST-Bcl-XL): 74.6 nM | EC50 (FL5.12/Bcl-2 cells): 8.1 nM

CC1(C)CCC(CN2CCN(c3ccc(C(=O)NS(=O)(=O)c4ccc(OCC5(F)CCOCC5)c([N+](=O)[O-])c4)c(Oc4cccc5[nH]cnc45)c3)CC2)=C(c2ccc(Cl)cc2)C1 [Example 408, 2-(1H-benzimidazol-4-yloxy)-4-(4-{[2-(4-chlorophenyl)-4,4-dimethylcyclohex-1-en-1-yl]methyl}piperazin-1-yl)-N-({4-[(4-fluorotetrahydro-2H-pyran-4-yl)methoxy]-3-nitrophenyl}sulfonyl)benzamide]
Ki (GST-Bcl-2): 0.002 nM | Ki (GST-Bcl-XL): 28.1 nM | EC50 (FL5.12/Bcl-2 cells): 2.39 nM

CC1(C)CCC(CN2CCN(c3ccc(C(=O)NS(=O)(=O)c4ccc(NCC5(F)CCOCC5)c([N+](=O)[O-])c4)c(Oc4cccc5[nH]ncc45)c3)CC2)=C(c2ccc(Cl)cc2)C1 [Example 409, 4-(4-{[2-(4-chlorophenyl)-4,4-dimethylcyclohex-1-en-1-yl]methyl}piperazin-1-yl)-N-[(4-{[(4-fluorotetrahydro-2H-pyran-4-yl)methyl]amino}-3-nitrophenyl)sulfonyl]-2-(1H-indazol-4-yloxy)benzamide]
Ki (GST-Bcl-2): < 0.01 nM | Ki (GST-Bcl-XL): 17.5 nM | EC50 (FL5.12/Bcl-2 cells): 1.2 nM

CC1(C)CCC(CN2CCN(c3ccc(C(=O)NS(=O)(=O)c4cnc(OCC5(F)CCOCC5)c(C(F)(F)F)c4)c(Oc4cccc5[nH]ncc45)c3)CC2)=C(c2ccc(Cl)cc2)C1 [Example 410, 4-(4-{[2-(4-chlorophenyl)-4,4-dimethylcyclohex-1-en-1-yl]methyl}piperazin-1-yl)-N-{[6-[(4-fluorotetrahydro-2H-pyran-4-yl)methoxy]-5-(trifluoromethyl)pyridin-3-yl]sulfonyl}-2-(1H-indazol-4-yloxy)benzamide]
Ki (GST-Bcl-2): 0.055 nM | Ki (GST-Bcl-XL): 102 nM | EC50 (FL5.12/Bcl-2 cells): 13.9 nM

CC1(C)CCC(CN2CCN(c3ccc(C(=O)NS(=O)(=O)c4ccc(NCC5CN(C6CC6)CCO5)c([N+](=O)[O-])c4)c(Oc4cccc5[nH]ncc45)c3)CC2)=C(c2ccc(Cl)cc2)C1 (centres unmarked) [Example 411, 4-(4-{[2-(4-chlorophenyl)-4,4-dimethylcyclohex-1-en-1-yl]methyl}piperazin-1-yl)-N-[(4-{[(4-cyclopropylmorpholin-2-yl)methyl]amino}-3-nitrophenyl)sulfonyl]-2-(1H-indazol-4-yloxy)benzamide]
Ki (GST-Bcl-2): 0.003 nM | Binding selectivity ratio (Bcl-XL Ki/Bcl-2 Ki) (GST-Bcl-2): 2352.3 | Ki (GST-Bcl-XL): 7.45 nM | EC50 (FL5.12/Bcl-2 cells): 11.4 nM

CC1(C)CCC(CN2CCN(c3ccc(C(=O)NS(=O)(=O)c4ccc(NCC5CCC(F)(F)CC5)c([N+](=O)[O-])c4)c(Oc4cccc5[nH]ncc45)c3)CC2)=C(c2ccc(Cl)cc2)C1 [Example 412, 4-(4-{[2-(4-chlorophenyl)-4,4-dimethylcyclohex-1-en-1-yl]methyl}piperazin-1-yl)-N-[(4-{[(4,4-difluorocyclohexyl)methyl]amino}-3-nitrophenyl)sulfonyl]-2-(1H-indazol-4-yloxy)benzamide]
Ki (GST-Bcl-2): 0.021 nM | Binding selectivity ratio (Bcl-XL Ki/Bcl-2 Ki) (GST-Bcl-2): 6545.5 | Ki (GST-Bcl-XL): 135 nM | EC50 (FL5.12/Bcl-2 cells): 9.48 nM
